Results taken from US20240041042A1, “1-(PYRIDYL)-5-AZINYLPYRAZOLE DERIVATIVES, AND THEIR USE FOR CONTROL OF UNDESIRED PLANT GROWTH” (Bayer Aktiengesellschaft, priority 2020, published 2024).
Read-outs that look alike come from different tables or passages of the source.

Columns and labels:
Assay type in all cases: in vivo
[1] = system: Lolium rigidum (LOLRI); experiment: Pre-emergence herbicidal action against LOLRI; details: dosage 320 g/ha
Method in brief: (§1)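 Greenhouse pot trial: seeds sown, soil-covered, sprayed before emergence with compound in water (0.5% additive; 600 l/ha; ≤320 g/ha). Scoring visual, ~3 weeks, 0–100% scale vs untreated.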

[2] = system: Alopecurus myosuroides (ALOMY); experiment: Pre-emergence herbicidal action against ALOMY; details: 320 g/ha; scored visually after about 3 weeks; 100% = plants have died
Method in brief: as §1

[3] = system: Zea mays (ZEAMX); details: crop plant compatibility, effect vs untreated controls
Method in brief: (§2)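 Percent effect on the crop was judged by eye against untreated controls, where 0% means like control and 100% means dead plants. Plants had been sprayed post-emergence at the one-leaf stage and then kept under optimum greenhouse conditions for about 3 weeks.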

[4] = system: Oryza sativa (ORYSA); details: crop plant compatibility, effect in comparison to untreated controls
Method in brief: as §2

[5] = system: Polygonum convolvulus (POLCO); experiment: Pre-emergence herbicidal action against POLCO; details: dosage 320 g/ha
Method in brief: as §1

[6] = system: Verconica persica (VERPE); experiment: Post-emergence herbicidal action against VERPE; details: 320 g/ha, VERPE
Method in brief: (§3)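 Post-emergence greenhouse spray, one-leaf stage, 600 l/ha water plus 0.5% additive; WP or EC formulations; application rates 320 g/ha or lower. Visual % damage vs untreated controls at ~3 weeks.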

[7] = system: Amaranthus retroflexus (AMARE); experiment: Pre-emergence herbicidal action against AMARE; details: 320 g/ha, visual scoring after about 3 weeks vs untreated controls
Method in brief: as §1

[8] = system: Zea mays (ZEAMX); details: pre-emergence, 80 g/ha, crop plant compatibility, in comparison to untreated controls
Method in brief: (§4)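 Scoring: visual, % of untreated control, about 3 weeks after a pre-emergence application to the soil surface. Application used WP or EC formulations diluted in water with 0.5% additive at 600 l/ha; dosage levels are marked by suffixes a, b and c.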

[9] = system: Oryza sativa (ORYSA); details: pre-emergence, crop plant compatibility, in comparison to untreated controls
Method in brief: as §4

[10] = system: Brassica napus (BRSNW); details: 80 g/ha, crop plant compatibility, in comparison to untreated controls
Method in brief: as §4

[11] = system: Lolium rigidum (LOLRI); experiment: Post-emergence herbicidal action against LOLRI; details: dosage 320 g/ha
Method in brief: as §3

[12] = system: Viola tricolor (VIOTR); experiment: Pre-emergence herbicidal action against VIOTR
Method in brief: as §1

[13] = system: Echinochloa crus-galli (ECHCG); experiment: Post-emergence herbicidal action against ECHCG; details: dosage 320 g/ha
Method in brief: as §3

[14] = system: Alopecurus myosuroides (ALOMY); experiment: Post-emergence herbicidal action against ALOMY; details: 320 g/ha, visual rating about 3 weeks after treatment vs untreated controls (100% = plants have died, 0% = like control plants)
Method in brief: as §3

[15] = system: Setaria viridis (SETVI); experiment: Post-emergence herbicidal action against SETVI; details: dosage 320 g/ha
Method in brief: as §3

[16] = system: Setaria viridis (SETVI); experiment: Pre-emergence herbicidal action against SETVI; details: dosage 320 g/ha
Method in brief: as §1

[17] = system: Avena fatua (AVEFA); experiment: Post-emergence herbicidal action against AVEFA; details: 320 g/ha, visual rating about 3 weeks after treatment
Method in brief: as §3

[18] = system: Avena fatua (AVEFA); experiment: Pre-emergence herbicidal action against AVEFA; details: 320 g/ha, visual scoring after about 3 weeks vs untreated controls
Method in brief: as §1

[19] = system: Polygonum convolvulus (POLCO); experiment: Post-emergence herbicidal action against POLCO; details: dosage 320 g/ha
Method in brief: as §3

[20] = system: Triticum aestivum (TRZAS); details: crop plant compatibility, 80 g/ha, effect vs untreated controls
Method in brief: as §2

[21] = system: Digitaria sanguinalis (DIGSA); experiment: Pre-emergence herbicidal action against DIGSA; details: dosage 320 g/ha
Method in brief: as §1

Compound	Pre-emergence action against LOLRI in % [1]	Pre-emergence action against ALOMY [2]	Post-emergence action against ZEAMX in % ([3]; 80 g/ha)	Post-emergence action against ORYSA in % ([4]; 80 g/ha)	Post-emergence action against VERPE in % [6]	Pre-emergence action against AMARE in % [7]	Pre-emergence action against ZEAMX in % [8]	Pre-emergence action against ORYSA in % ([9]; 80 g/ha)	Pre-emergence action against BRSNW in % [10]	Pre-emergence action against VIOTR in % ([12]; 320 g/ha, Viola tricolor)	Post-emergence action against ECHCG in % [13]	further results
COC(=O)CCOC(=O)COc1nn(-c2ncccc2C(F)(F)F)c(-c2ccc(F)nc2)c1Br [Example I-381]	90%	90%	0%	20%	80%	90%	0%	20%	0%	90%	80%	Post-emergence action against ORYSA in % ([4]; 320 g/ha): 20%; Pre-emergence action against POLCO in % [5]: 80%; Post-emergence action against LOLRI in % [11]: 80%; Pre-emergence action against VIOTR in % ([12]; dosage 80 g/ha): 80%
COC(=O)CCOC(=O)COc1nn(-c2ncccc2F)c(-c2ccc(F)nc2)c1Cl [Example I-272]	80%	90%	10%	10%	80%	90%	0%	10%	0%	90%	80%	Post-emergence action against ALOMY in % [14]: 90%; Post-emergence action against SETVI in % [15]: 80%; Pre-emergence action against SETVI in % [16]: 90%; Post-emergence action against AVEFA in % [17]: 80%; Pre-emergence action against AVEFA in % [18]: 100%; Post-emergence action against POLCO in % [19]: 80%
COC(=O)C=CC(C)NC(=O)COc1nn(-c2ccccn2)c(-c2ccc(F)nc2)c1Br (stereo not drawn) [Example I-297]		80%			80%	80%	10%	10%	20%			Post-emergence action against ZEAMX in % ([3]; 320 g/ha): 0%; Post-emergence action against TRZAS in % [20]: 10%; Pre-emergence action against DIGSA in % [21]: 80%; Pre-emergence action against ORYSA in % ([9]; 320 g/ha): 20%
